According to patent publication US20230365537A1, “POLO LIKE KINASE 4 INHIBITORS” (ORIC Pharmaceuticals, Inc., priority 2021, published 2023):

Assays:
human recombinant PLK4 = human recombinant PLK4 (Homo sapiens (Human), UniProt O00444); assay: PLK4 Biochemical Assay (ADP-Glo); settings: 0.5 nM PLK4, 8.0 µM ATP, 4.7 µM MBP, 6 hours at RT
In short: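 Luminescent ADP-Glo detection quantified ADP production, with ATP depletion for 40 min and detection for 30 min at room temperature. Compound and PLK4 (1.0 nM stock addition) were preincubated 15 min in HEPES pH 7.5 buffer containing MgCl2, EGTA, DTT, Brij-35 and BSA. IC50 values were obtained by four-parameter nonlinear regression.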

CHP-134 cells = assay: CHP134 CellTiter-Glo (CTG) Assay; assay type: cell-based; settings: Homo sapiens, CHP-134, 120 h, 5 days, viable cells by CellTiter-Glo
In short: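 Nine-point 1:3 dilution series, diluted into growth media, added in quadruplicate to CHP-134 cells plated 16 h earlier at 200 cells/well.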

[1] = molecular target: human recombinant Aurora A (Homo sapiens (Human), UniProt O14965); assay: Aurora A Kinase Biochemical Assay (ADP-Glo); settings: ratio of Aurora A IC50 to PLK4 IC50 (selectivity)
[2] = molecular target: human recombinant Aurora B (Homo sapiens (Human), UniProt Q96GD4); assay: Aurora B Kinase Biochemical Assay (ADP-Glo); settings: ratio of Aurora B IC50 to PLK4 IC50 (selectivity)
In short: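 IC50 derived by four-parameter nonlinear fit of ADP-Glo luminescence (ADP produced). Compound was preincubated 15 min at RT with 20 nM recombinant human Aurora B, in 50 mM HEPES pH 7.5, 10 mM MgCl2, 1 mM EGTA, 1 mM DTT, 0.01% Brij-35/BSA.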

Sequence of human recombinant Aurora B (Q96GD4 whole entry): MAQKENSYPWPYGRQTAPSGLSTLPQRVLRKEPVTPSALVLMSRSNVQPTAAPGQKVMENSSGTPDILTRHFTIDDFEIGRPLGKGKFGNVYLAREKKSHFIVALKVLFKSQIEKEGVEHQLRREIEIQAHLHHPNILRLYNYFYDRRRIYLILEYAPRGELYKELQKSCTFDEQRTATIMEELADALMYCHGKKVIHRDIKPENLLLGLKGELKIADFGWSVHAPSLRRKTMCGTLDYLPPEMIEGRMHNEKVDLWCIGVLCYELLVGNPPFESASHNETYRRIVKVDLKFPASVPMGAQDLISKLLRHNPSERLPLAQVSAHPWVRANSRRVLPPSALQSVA
Sequence of human recombinant PLK4 (O00444 whole entry): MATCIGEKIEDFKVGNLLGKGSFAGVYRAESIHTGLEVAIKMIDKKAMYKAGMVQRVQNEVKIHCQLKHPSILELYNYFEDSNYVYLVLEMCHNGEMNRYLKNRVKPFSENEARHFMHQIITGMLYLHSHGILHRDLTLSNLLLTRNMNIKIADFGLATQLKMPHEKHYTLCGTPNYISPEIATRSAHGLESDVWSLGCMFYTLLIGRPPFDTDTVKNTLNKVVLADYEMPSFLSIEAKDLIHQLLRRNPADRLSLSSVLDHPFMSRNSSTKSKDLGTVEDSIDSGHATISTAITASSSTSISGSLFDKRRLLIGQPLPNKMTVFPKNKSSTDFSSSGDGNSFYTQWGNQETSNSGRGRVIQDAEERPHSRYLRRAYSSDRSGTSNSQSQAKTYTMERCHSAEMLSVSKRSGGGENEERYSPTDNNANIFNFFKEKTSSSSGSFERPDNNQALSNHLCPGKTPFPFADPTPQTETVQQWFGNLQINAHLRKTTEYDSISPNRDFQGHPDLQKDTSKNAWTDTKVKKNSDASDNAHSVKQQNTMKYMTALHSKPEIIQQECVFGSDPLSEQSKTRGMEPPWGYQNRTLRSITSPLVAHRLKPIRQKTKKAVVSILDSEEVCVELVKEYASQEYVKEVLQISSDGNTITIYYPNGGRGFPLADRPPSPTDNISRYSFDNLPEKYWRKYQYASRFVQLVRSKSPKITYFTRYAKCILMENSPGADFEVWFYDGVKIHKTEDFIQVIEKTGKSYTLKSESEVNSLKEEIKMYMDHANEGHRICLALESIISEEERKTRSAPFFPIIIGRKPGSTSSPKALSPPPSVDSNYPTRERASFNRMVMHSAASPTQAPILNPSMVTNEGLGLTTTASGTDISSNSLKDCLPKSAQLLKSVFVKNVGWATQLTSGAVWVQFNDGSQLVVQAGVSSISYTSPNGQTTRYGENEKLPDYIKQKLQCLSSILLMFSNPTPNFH
Sequence of human recombinant Aurora A (O14965 whole entry): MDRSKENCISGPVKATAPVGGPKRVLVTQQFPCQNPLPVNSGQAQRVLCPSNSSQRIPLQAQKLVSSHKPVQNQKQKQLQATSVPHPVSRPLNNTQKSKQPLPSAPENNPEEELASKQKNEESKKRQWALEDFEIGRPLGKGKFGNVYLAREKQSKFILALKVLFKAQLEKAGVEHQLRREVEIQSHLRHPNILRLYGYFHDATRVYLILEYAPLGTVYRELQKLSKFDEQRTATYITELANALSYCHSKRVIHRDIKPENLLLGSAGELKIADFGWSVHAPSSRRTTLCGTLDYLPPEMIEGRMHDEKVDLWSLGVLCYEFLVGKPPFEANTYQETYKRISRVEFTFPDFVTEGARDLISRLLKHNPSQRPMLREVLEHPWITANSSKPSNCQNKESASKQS

| IC50 (human recombinant PLK4) [µM] | [Aurora A IC50 (nM)]/[PLK4 IC50 (nM)] [1] | [Aurora B IC50 (nM)]/[PLK4 IC50 (nM)] [2] | Structure (SMILES) | IC50 (CHP-134 cells) [µM] |
| --- | --- | --- | --- | --- |
| 0.00267 | 301.0878 | 314.9287 | COc1ccc2c(c1)[C@]1(C[C@H]1c1ccc3c(Nc4nc(N5CC(F)(F)C5)ncc4OC)n[nH]c3c1)C(=O)N2 [Example 173, (1R,2S)-2-(3-([2-(3,3-difluoroazetidin-1-yl)-5-methoxypyrimidin-4-yl]amino}-1H-indazol-6-yl)-5′-methoxyspiro[cyclopropane-1,3′-indol]-2′(1 ‘H)-one] | 0.332 |
| 0.00192 | 365.8511 | 353.7741 | COc1ccc2c(c1)[C@]1(C[C@H]1c1ccc3c(Nc4nc(N5CC(F)C5)ncc4OC)n[nH]c3c1)C(=O)N2 [Example 174, (1R,2S)-2-(3-{[2-(3-fluoroazetidin-1-yl)-5-methoxypyrimidin-4-yl]amino}-1H-indazol-6-yl)-5′-methoxyspiro[cyclopropane-1,3′-indol]-2′(1′H)-one] | 0.392 |
| 0.00357 | 14009.5265 | 8627.0664 | CCS(=O)(=O)c1ccc(OC)c(Nc2n[nH]c3cc([C@@H]4C[C@@]45C(=O)Nc4ccc(OC)cc45)ccc23)c1 [Example 175, (1R,2S)-2-{3-[5-(ethanesulfonyl)-2-methoxyanilino]-1H-indazol-6-yl}-5′-methoxyspiro[cyclopropane-1,3′-indol]-2′(1′H)-one] | 2.21 |
| 0.00284 | 1725.2902 | 1300.3869 | COc1ccc2c(c1)[C@]1(C[C@H]1c1ccc3c(Nc4cc(C(=O)N(C)C)ccc4OC)n[nH]c3c1)C(=O)N2 [Example 176, 4-methoxy-3-({6-[(1R,2S)-5′-methoxy-2′-oxo-1′,2′-dihydrospiro[cyclopropane-1,3′-indol]-2-yl]-1H-indazol-3-yl}amino)-N,N-dimethylbenzamide] | 1.55 |
| 0.00426 | 11750.8813 | 11750.8813 | CNC(=O)c1ccc(OC)c(Nc2n[nH]c3cc([C@@H]4C[C@@]45C(=O)Nc4ccc(OC)cc45)ccc23)c1 [Example 177, 4-methoxy-3-({6-[(1R,2S)-5′-methoxy-2′-oxo-1′,2′-dihydrospiro[cyclopropane-1,3′-indol]-2-yl]-1H-indazol-3-yl}amino)-N-methylbenzamide] | 3.68 |
| 0.00329 | 15179.1135 | 15179.1135 | COc1ccc2c(c1)[C@]1(C[C@H]1c1ccc3c(Nc4cc(S(=O)(=O)C(C)C)ccc4OC)n[nH]c3c1)C(=O)N2 [Example 178, (1R,2S)-5′-methoxy-2-{3-[2-methoxy-5-(propane-2-sulfonyl)anilino]-1H-indazol-6-yl}spiro[cyclopropane-1,3′-indol]-2′(1′H)-one] | 0.631 |
| 0.00381 | 13119.9160 | 5384.4135 | COc1ccc2c(c1)[C@]1(C[C@H]1c1ccc3c(Nc4cc(S(=O)(=O)N(C)C)ccc4OC)n[nH]c3c1)C(=O)N2 [Example 179, 4-methoxy-3-({6-[(1R,2S)-5′-methoxy-2′-oxo-1′,2′-dihydrospiro[cyclopropane-1,3′-indol]-2-yl]-1H-indazol-3-yl}amino)-N,N-dimethylbenzene-1-sulfonamide] | 0.948 |
| 0.00285 | 5455.5011 | 1996.8465 | COc1ccc2c(c1)[C@]1(C[C@H]1c1ccc3c(Nc4cc(C(=O)N5CCOCC5)ccc4OC)n[nH]c3c1)C(=O)N2 [Example 180, (1R,2S)-5′-methoxy-2-{3-[2-methoxy-5-(morpholine-4-carbonyl)anilino]-1H-indazol-6-yl}spiro[cyclopropane-1,3′-indol]-2′(1′H)-one] | 0.741 |
| 0.00125 | 534.2169 | 322.5703 | COc1ccc2c(c1)[C@]1(C[C@H]1c1ccc3c(Nc4ccc(C(=O)N5CCOCC5)nc4OC)n[nH]c3c1)C(=O)N2 [Example 183, (1R,2S)-5′-methoxy-2-(3-{[2-methoxy-6-(morpholine-4-carbonyl)pyridin-3-yl]amino}-1H-indazol-6-yl)spiro(cyclopropane-1,3′-indol]-2′(1′H)-one] | 0.125 |
| 0.007 | 7144.8985 | 7144.8985 | COc1ccc2c(c1)[C@]1(C[C@H]1c1ccc3c(Nc4ccc(C(=O)N5CC(F)(F)C5)nc4OC)n[nH]c3c1)C(=O)N2 [Example 184, (1R,2S)-2-(3-{[6-(3,3-difluoroazetidine-1-carbonyl)-2-methoxypyridin-3-yl]amino}-1H-indazol-6-yl)-5′-methoxyspiro[cyclopropane-1,3′-indol]-2′(1′H)-one] | 0.882 |
| 0.00196 | 3240.7975 | 180.1636 | COc1ccc2c(c1)[C@]1(C[C@H]1c1ccc3c(Nc4ccc(C(=O)N5CCC(F)(F)CC5)nc4OC)n[nH]c3c1)C(=O)N2 [Example 185, (1R,2S)-2-(3-{[6-(4,4-difluoropiperidine-1-carbonyl)-2-methoxypyridin-3-yl]amino}-1H-indazol-6-yl)-5′-methoxyspiro[cyclopropane-1,3′-indol]-2′(1′H)-one] | 0.134 |
| 0.00178 | 641.9337 | 232.5464 | COc1ccc2c(c1)[C@]1(C[C@H]1c1cc(F)c3c(Nc4nc(SC)ncc4OC)n[nH]c3c1)C(=O)N2 [Example 186, (1R,2S)-2-(4-fluoro-3-{[5-methoxy-2-(methylsulfanyl)pyrimidin-4-yl]amino}-1H-indazol-6-yl)-5′-methoxyspiro[cyclopropane-1,3′-indol]-2′(1′H)-one] | 0.537 |
| 0.00612 | 109.5814 | 112.2793 | COc1ccc2c(c1)[C@]1(C[C@H]1c1ccc3c(Nc4nc(OC)ncc4C)n[nH]c3c1)C(=O)N2 [Example 187, (1R,2S)-5′-methoxy-2-{3-[(2-methoxy-5-methylpyrimidin-4-yl)amino]-1H-indazol-6-yl}spiro[cyclopropane-1,3′-indol]-2′(1′H)-one] | 0.563 |
| 0.00627 | 7974.4817 | 191.7065 | COc1ccc2c(c1)[C@]1(C[C@H]1c1ccc3c(Nc4ccc(C(=O)N5CC6(COC6)C5)nc4OC)n[nH]c3c1)C(=O)N2 [Example 188, (1R,2S)-5′-methoxy-2-(3-{[2-methoxy-6-(2-oxa-6-azaspiro[3.3]heptane-6-carbonyl)pyridin-3-yl]amino}-1H-indazol-6-yl)spiro[cyclopropane-1,3′-indol]-2′(1′H)-one] | 0.76 |
| 0.00104 | 383.7321 | 514.5455 | COc1ccc2c(c1)[C@]1(C[C@H]1c1ccc3c(Nc4nc(N5CCC(F)(F)CC5)ncc4OC)n[nH]c3c1)C(=O)N2 [Example 189, (1R,2S)-2-(3-{[2-(4,4-difluornpiperidin-1-yl)-5-methoiypyrimidin-4-yl]amino}-1H-indazol-6-yl)-5′-methoxyspiro[cyclopropane-1,3′-indol]-2′(1′H)-one] | 0.112 |
| 0.00266 | 129.5378 | 279.1432 | COc1ccc2c(c1)[C@]1(C[C@H]1c1ccc3c(Nc4nc(N5CCS(=O)(=O)CC5)ncc4OC)n[nH]c3c1)C(=O)N2 [Example 190, 4-[5-methoxy-4-({6-[(1R,2S)-5′-methoxy-2′-oxo-1′,2′-dihydrospiro[cyclopropane-1,3′-indol]-2-yl]-1H-indazol-3-yl}amino)pyrimidin-2-yl]-1λ6-thiomorpholine-1,1-dione] | 5.12 |
| 0.00227 | 2416.5931 | 84.9956 | CNC(=O)c1ccc(Nc2n[nH]c3cc([C@@H]4C[C@@]45C(=O)Nc4ccc(OC)cc45)ccc23)c(OC)n1 [Example 191, 6-methoxy-5-({6-[(1R,2S)-5′-methoxy-2′-oxo-1′,2′-dihydrospiro[cyclopropane-1,3′-indol]-2-yl]-1H-indazol-3-yl}amino)-N-methylpyridine-2-carboxamide] | 0.494 |
| 0.00164 | 2835.2654 | 678.4625 | COc1ccc2c(c1)[C@]1(C[C@H]1c1ccc3c(Nc4nc(N5CC6(COC6)C5)ncc4OC)n[nH]c3c1)C(=O)N2 [Example 192, (1R,2S)-5′-methoxy-2-(3-{[5-methoxy-2-(2-oxa-6-azaspiro[3.3]heptan-6-yl)pyrimidin-4-yl]amino}-1H-indazol-6-yl)spiro[cyclopropane-1,3′-indol]-2′(1′H)-one] | 1.18 |
